Reference: patent EP4745118A1, “HYDROXAMIC ACID COMPOUND OR PHARMACEUTICALLY ACCEPTABLE SALT THEREOF, AND USE THEREOF AND PREPARATION METHOD THEREFOR” (priority 2023, dated 2025)
Converted amounts (≈) assume the structure as drawn. Like-named read-outs stand apart in the source and are kept apart here.

How the values were obtained:
[1] = test system: Shigella flexneri; assay: In vitro antibacterial activity, agar dilution method (MIC); assay type: cell-based; settings: 18 hours
How it was run: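 Agar dilution per CLSI in MH agar, final drug 0.03–128 µg/mL in twofold steps. About 10^4 CFU spotted per site, 35°C for 18 hours; MIC taken as lowest concentration with no growth.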

[2] = test system: Escherichia coli; assay: as above; assay type: cell-based; settings: agar dilution, 35°C, 18 hours
How it was run: (§1)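 CLSI agar dilution: strains grown in broth, adjusted to 0.5 McFarland, diluted 10-fold, ~10^4 CFU per spot applied by multipoint inoculator to drug-containing agar plates. Incubated 35 °C for 18 h; MIC is the lowest drug concentration giving no growth.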

[3] = test system: Serratia marcescens; assay: as above; assay type: cell-based; settings: Serratia marcescens ATCC 21074, agar dilution, 35°C, 18 hours
How it was run: as §1

[4] = test system: Citrobacter freundii; assay: as above; assay type: cell-based; settings: Citrobacter freundii ATCC 43864, agar dilution, 35°C, 18 hours
How it was run: as §1

[5] = test system: Enterobacter aerogenes; assay: as above; assay type: cell-based; settings: Enterobacter aerogenes ATCC 13048, agar dilution, 35°C, 18 hours
How it was run: as §1

[6] = test system: Klebsiella pneumoniae; assay: as above; assay type: cell-based; settings: agar dilution, 35°C, 18 hours
How it was run: as §1

[7] = test system: Pseudomonas aeruginosa; assay: as above; assay type: cell-based; settings: Pseudomonas aeruginosa PAO1, agar dilution, 35°C, 18 hours
How it was run: as §1

[8] = test system: Proteus vulgaris; assay: as above; assay type: cell-based; settings: Proteus vulgaris ATCC 29905, agar dilution, 35°C, 18 hours
How it was run: as §1

[9] = test system: Proteus mirabilis; assay: as above; assay type: cell-based; settings: Proteus mirabilis ATCC 49565, agar dilution, 35°C, 18 hours
How it was run: as §1

[10] = test system: Pantoea agglomerans; assay: as above; assay type: cell-based; settings: Pantoea agglomerans ATCC 27993, agar dilution, 35°C, 18 hours
How it was run: as §1

[11] = test system: Enterobacter cloacae; assay: as above; assay type: cell-based; settings: Enterobacter cloacae CDC1000654 (NDM-1-producing), agar dilution, 35°C, 18 hours
How it was run: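 CLSI agar dilution; inoculum ~10^4 CFU per spot from 0.5 McFarland suspension diluted 10-fold. Plates incubated 35°C for 18 h. MIC taken as lowest drug concentration giving no growth.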

[12] = test system: Vero cells; assay: Vero cytotoxicity (CCK-8); assay type: cell-based; settings: Vero cells, 24 hours incubation, CCK-8, read-out: IC50
Method: All liquid was transferred to a 15 mL centrifuge tube and centrifuged at 800 rpm for 5 min. […] A cell counter was used to measure cell density. Cells were inoculated at 100 µL and a density of 3 × 10^5/mL into a 96-well plate, with 6 replicates per group, and incubated at 37°C for 4 hours to allow cells to adhere to the wall. The compound was twofold continuously diluted with PBS, and 10 µL of the compound with the corresponding concentration was added to the 96-well plate, and shaken and mixed well on a shaker, and then incubated at 37°C for 24 hours. 10 µL of CCK-8 reagent was added to the 96-well plate, mixed thoroughly on a shaker, and incubated at 37°C for 2 hours. A microplate reader was used to measure the absorbance at 450 nm wavelength, and the inhibition rate of the compound on Vero cells was calculated. Table 5 Vero cytotoxicity of 4 optical isomers and control drug

[13] = test system: ICR strain mice; assay: Acute toxicity in mice, single tail vein injection; assay type: in vivo; settings: one week
Method: Healthy ICR strain mice weighing 20-21 g were taken for the experiment, randomly divided into groups of 3 mice per group, regardless of gender. Each compound was administered via a single tail vein injection at a volume of 20 mL/kg. Animal responses were observed immediately postadministration and monitored for one week. The number of animal deaths was recorded and mortality rates calculated.

## COC[C@@H]1C[C@H]1C#CC#Cc1ccc(C(=O)N[C@H](C(=O)NO)C(C)(C)N)cc1 [Ia, N-(S)-3-amino-1-hydroxyamino-3-methyl-1-oxobutan-2-yl-4-[[(1R,2R)-2-(methoxymethylene)cyclopropyl]but-1,3-diynyl]benzamide]
[1]; ATCC12022, Shigella flexneri ATCC 12022, 35°C, read-out: MIC
  MIC: 0.06 µg/mL (≈ 0.156 µM)
[2]; Escherichia coli, 18 h, Escherichia coli 13-43 (mcr-1), read-out: MIC
  MIC: 0.12 µg/mL (≈ 0.313 µM)
[2]; Escherichia coli, 18 h, Escherichia coli 17-R28 (CRE, NDM-1-producing), read-out: MIC
  MIC: 0.12 µg/mL (≈ 0.313 µM)
[2]; Escherichia coli, ATCC2469, 18 h, Escherichia coli ATCC 2469 (CRE, NDM-1-producing), read-out: MIC
  MIC: 0.12 µg/mL (≈ 0.313 µM)
[2]; Escherichia coli, ATCC35218, 18 h, Escherichia coli ATCC 35218 (ESBLs-producing), read-out: MIC
  MIC: 0.12 µg/mL (≈ 0.313 µM)
[3]; ATCC21074, read-out: MIC
  MIC: 0.25 µg/mL (≈ 0.652 µM)
[4]; ATCC43864, read-out: MIC
  MIC: 0.25 µg/mL (≈ 0.652 µM)
[5]; Klebsiella aerogenes, ATCC13048, read-out: MIC
  MIC: 0.5 µg/mL (≈ 1.3 µM)
[6]; Klebsiella pneumoniae, 18 h, Klebsiella pneumoniae 09-20 (mcr-1), read-out: MIC
  MIC: 0.25 µg/mL (≈ 0.652 µM)
[6]; Klebsiella pneumoniae, 18 h, Klebsiella pneumoniae 17-R27 (CRE), read-out: MIC
  MIC: 0.5 µg/mL (≈ 1.3 µM)
[6]; Klebsiella pneumoniae, 18 h, Klebsiella pneumoniae 18-8 (ESBLs-producing), read-out: MIC
  MIC: 0.06 µg/mL (≈ 0.156 µM)
[6]; Klebsiella pneumoniae, ATCC700603, 18 h, Klebsiella pneumoniae ATCC 700603 (ESBLs-producing), read-out: MIC
  MIC: 1 µg/mL (≈ 2.61 µM)
[6]; Klebsiella pneumoniae, ATCCBAA2146, 18 h, Klebsiella pneumoniae ATCC BAA-2146 (CRE, NDM-1-producing), read-out: MIC
  MIC: 1 µg/mL (≈ 2.61 µM)
[7]; read-out: MIC
  MIC: 0.5 µg/mL (≈ 1.3 µM)
[8]; ATCC29905, read-out: MIC
  MIC: 0.12 µg/mL (≈ 0.313 µM)
[9]; ATCC49565, read-out: MIC
  MIC: 0.25 µg/mL (≈ 0.652 µM)
[10]; ATCC27993, read-out: MIC
  MIC: 0.5 µg/mL (≈ 1.3 µM)
[11]; read-out: MIC
  MIC: 1 µg/mL (≈ 2.61 µM)
[12]; Chlorocebus sabaeus
  IC50: > 128 µM
[13]; dose 150 mg/kg
  Mortality rate: 0%
  Number of deaths: 0 individuals
[13]; dose 200 mg/kg
  Mortality rate: 100%
  Number of deaths: 3 individuals

## COCC1CC1C#CC#Cc1ccc(C(=O)NC(C(=O)NO)C(C)(C)N)cc1 (mixture of isomers) [Ia/Ib racemate]
[1]; Shigella flexneri ATCC 12022, 35°C
  MIC: 0.12 µg/mL
[2]; Escherichia coli 13-43 (mcr-1)
  MIC: 0.12 µg/mL
[2]; Escherichia coli 17-R28 (CRE, NDM-1-producing)
  MIC: 0.12 µg/mL
[2]; Escherichia coli ATCC 2469 (CRE, NDM-1-producing)
  MIC: 0.5 µg/mL
[2]; Escherichia coli ATCC 35218 (ESBLs-producing)
  MIC: 0.25 µg/mL
[3]
  MIC: 0.25 µg/mL
[4]
  MIC: 0.25 µg/mL
[5]
  MIC: 1 µg/mL
[6]; Klebsiella pneumoniae 09-20 (mcr-1)
  MIC: 0.5 µg/mL
[6]; Klebsiella pneumoniae 17-R27 (CRE)
  MIC: 1 µg/mL
[6]; Klebsiella pneumoniae 18-8 (ESBLs-producing)
  MIC: 0.5 µg/mL
[6]; Klebsiella pneumoniae ATCC 700603 (ESBLs-producing)
  MIC: 2 µg/mL
[6]; Klebsiella pneumoniae ATCC BAA-2146 (CRE, NDM-1-producing)
  MIC: 2 µg/mL
[7]
  MIC: 1 µg/mL
[8]
  MIC: 0.25 µg/mL
[9]
  MIC: 1 µg/mL
[10]
  MIC: 1 µg/mL
[11]
  MIC: 2 µg/mL
[12]
  IC50: > 128 µM
[13]; dose 100 mg/kg
  Mortality rate: 0%
  Number of deaths: 0 individuals
[13]; dose 150 mg/kg
  Mortality rate: 100%
  Number of deaths: 3 individuals
